“Also recorded” adds a separate entry of the source.
Assays:
Jurkat cells [1] = assay: anti-TCR-induced CD69 upregulation in naive Jurkat cells; format: cell-based, human
Protocol: Stimulation: For CD69 upregulation experiments, tTA-Jurkat cells were split to 2.5×10^5 cells/ml 24 hours prior to stimulation. Cells were spun and resuspended at 5×10^5 cells/ml in fresh complete RPMI medium in the presence of 100 ng/ml […] (anti-Jurkat clonotypic TCR) or 5 ng/ml PMA hybridoma supernatant for 20-26 hours at 37° C., and then assayed for surface CD69 expression. Cell surface marker analysis: Jurkat-N cells were stained with an APC-conjugated mouse monoclonal anti-human CD69 antibody (Caltag) at 4° C. for 20 minutes and analyzed using a Facscalibur instrument (Becton Dickinson) with Cellquest software. Cell sorts were performed on a MoFlo (Cytomation).

Jurkat cells [2] = assay: SPP-induced migration assay in Jurkat cells; format: cell-based, human
From the text: (§1) “Lymphocyte migration” refers to migration of B and T lymphocytes to and from primary and secondary lymphoid organs (e.g., bone marrow, thymus, lymph nodes, spleen, Peyer's patch, and tonsils), the periphery, and non-lymphoid tissues via the blood stream, lymphatic vessels, and by penetration of capillary walls (see, e.g., Paul, Immunology (3rd ed., 1993) (Chapters 4 and 6)). […] SPP and LPA are present in serum and are produced by a number of cells, including platelets and fibroblasts. Ligand-induced lymphocyte migration can be measured using the assay described in FIG. 33A, in which lymphocytes migrate toward the ligand from an upper to a lower chamber. The sphingolipid analog compound 2-amino-2(2-[4-octylphenyl]ethyl)-1,3-propanediol hydrochloride and analogs thereof inhibit such migration. The C-terminus of EDG-1 appears to be involved in migration. Such domains (e.g., the cytoplasmic tail of EDG-1) can be used in high throughput binding assays for compounds that modulate lymphocyte migration.
(§2) As described above, in one embodiment, lymphocyte activation is measured by contacting T cells comprising an EDG target with a potential modulator and activating the cells with an anti-TCR antibody. […] In another embodiment, lymphocyte migration is measured by observing T cell migration from an upper to a lower chamber containing an EDG ligand such as SPP.

BJAB cells = assay: anti-BCR-induced CD69 upregulation in naive BJAB cells; format: cell-based
EDG-1 [3] = assay: anti-BCR induced CD69 upregulation in BJAB cells expressing TIG-EDG-1 constructs; format: cell-based
EDG-1 [4] = biological target: T1, EDG-1 (Homo sapiens, UniProt P21453); assay: as above; format: cell-based
EDG-1 [5] = biological target: T1, EDG-1; assay: EDG-1 wild-type induced CD69 inhibition in Jurkat cells; format: cell-based; details: Jurkat cells expressing EDG-1 wild-type
Protocol: Stimulation: For CD69 upregulation experiments, tTA-Jurkat cells were split to 2.5×10^5 cells/ml 24 hours prior to stimulation. Cells were spun and resuspended at 5×10^5 cells/ml in fresh complete RPMI medium in the presence of 100 ng/ml [MUT] (anti-Jurkat clonotypic TCR) or 5 ng/ml PMA hybridoma supernatant for 20-26 hours at 37° C., and then assayed for surface CD69 expression. Cell surface marker analysis: Jurkat-N cells were stained with an APC-conjugated mouse monoclonal anti-human CD69 antibody (Caltag) at 4° C. for 20 minutes and analyzed using a Facscalibur instrument (Becton Dickinson) with Cellquest software. Cell sorts were performed on a MoFlo (Cytomation).

EDG-1 [6] = biological target: T1, EDG-1; assay: EDG-1 wild-type enhanced SPP-induced migration in Jurkat cells; format: cell-based; details: Jurkat cells expressing EDG-1 wild-type
From the text: (§3) “Lymphocyte migration” refers to migration of B and T lymphocytes to and from primary and secondary lymphoid organs (e.g., bone marrow, thymus, lymph nodes, spleen, Peyer's patch, and tonsils), the periphery, and non-lymphoid tissues via the blood stream, lymphatic vessels, and by penetration of capillary walls (see, e.g., Paul, Immunology (3rd ed., 1993) (Chapters 4 and 6)). […] SPP and LPA are present in serum and are produced by a number of cells, including platelets and fibroblasts. Ligand-induced lymphocyte migration can be measured using the assay described in FIG. 33A, in which lymphocytes migrate toward the ligand from an upper to a lower chamber.
(§4) As described above, in one embodiment, lymphocyte activation is measured by contacting T cells comprising an EDG target with a potential modulator and activating the cells with an anti-TCR antibody. Modulation of T cell activation is identified by screening for cell surface marker expression, e.g., CD69 expression levels, using fluorescent antibodies and FACS sorting. In another embodiment, lymphocyte migration is measured by observing T cell migration from an upper to a lower chamber containing an EDG ligand such as SPP.

primary T cell = assay: SPP-induced primary T cell migration; format: cell-based; details: primary T cells
From the text: as §1, §2

EDG-1 [7] = biological target: T1, EDG-1; assay: EDG-1 mediated SPP-induced lymphocyte migration; format: cell-based; details: lymphocytes migrating toward ligand from upper to lower chamber
From the text: as §3, §4

T1 sequence (P21453 whole entry): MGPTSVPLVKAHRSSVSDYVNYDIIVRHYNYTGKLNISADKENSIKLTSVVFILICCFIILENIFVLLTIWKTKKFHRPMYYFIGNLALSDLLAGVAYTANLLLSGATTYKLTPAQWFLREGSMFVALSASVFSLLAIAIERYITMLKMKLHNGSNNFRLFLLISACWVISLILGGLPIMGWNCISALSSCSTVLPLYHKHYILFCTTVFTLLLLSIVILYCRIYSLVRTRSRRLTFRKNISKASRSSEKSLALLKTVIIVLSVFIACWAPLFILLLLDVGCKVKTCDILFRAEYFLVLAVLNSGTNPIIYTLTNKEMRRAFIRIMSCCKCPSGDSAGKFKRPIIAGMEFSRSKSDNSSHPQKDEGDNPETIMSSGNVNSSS

effect on wild-type EDG-1 inhibition of anti-BCR induced CD69 upregulation (EDG-1 [4]; BJAB cells expressing wild-type EDG-1)	effect on EDG-1 wild-type induced CD69 inhibition (EDG-1 [5])	effect on EDG-1 wild-type enhanced SPP-induced migration (EDG-1 [6])	effect on EDG-1 mediated SPP-induced (ligand-induced) lymphocyte migration (EDG-1 [7]; listed as 2-amino-2(2-[4-octylphenyl]ethyl)-1,3-propanediol hydrochloride)	effect on EDG-1 mediated SPP-induced (ligand-induced) lymphocyte migration (EDG-1 [7]; hydrochloride)	SMILES	effect on anti-TCR-induced CD69 upregulation (Jurkat cells [1]; in the presence of CS-FBS)	effect on anti-TCR-induced CD69 upregulation (Jurkat cells [1]; regular serum)	migration of Jurkat cells (Jurkat cells [2]; Jurkat cells migrating toward ligand)	effect on anti-BCR-induced CD69 upregulation (BJAB cells; in the presence of CS-FBS)	effect on anti-BCR-induced CD69 upregulation (BJAB cells; regular serum)	effect on anti-BCR induced CD69 upregulation (EDG-1 [3]; BJAB cells expressing TIG vector)	effect on the inhibition of EDG-1 mediated anti-BCR induced CD69 upregulation (EDG-1 [3]; BJAB cells, FIGS. 29 and 30)	dose dependence of wild-type EDG-1 inhibition of anti-BCR induced CD69 upregulation (EDG-1 [4]; cells overexpressing wild-type EDG-1, SPP added)	effect on SPP-induced migration (Jurkat cells [2]; Jurkat cells)	effect on SPP-induced primary T cell migration (primary T cell)
potentiates	–	–	–	–	CCCCCCCCCCCCC/C=C/[C@@H](O)[C@@H](N)COP(=O)(O)O [SPP, sphingosine-1-phosphate]	no effect	no effect	induced migration	no effect	no effect	no effect	no effect	dose-dependent manner; also recorded: dose dependent manner	–	–
–	no effect	inhibits	inhibit	blocked	CCCCCCCCc1ccc(CCC(N)(CO)CO)cc1.Cl [FTY720, 2-amino-2(2-[4-octylphenyl]ethyl)-1,3-propanediol hydrochloride]	–	–	–	–	–	–	–	–	no effect	inhibits

Source: patent US7521192B2, “EDG: modulators of lymphocyte activation and migration” (Rigel Pharmaceuticals, Inc., priority 2001, dated 2009)
